Like-named read-outs stand apart in the source and are kept apart here.
Assays:
[1] = system: CBRs expressed in DU-145 membranes; type: binding, human
Protocol: (§1) The assay was conducted as previously detailed. […] All binding reactions were conducted in triplicate, in a final volume of 1 mL, and, following mixing, were incubated for 20 min in a 37 °C water bath to achieve equilibrium. After incubation, reactions were terminated by rapid vacuum filtration through Whatman GF/B glass fiber filters (Brandel; Gaithersburg, MD, USA), followed by three washes of 4 mls of ice-cold filtration buffer (50 mM Tris, pH 7.4, and 0.05% bovine serum albumin). Samples were punched out from filter papers into scintillation vials, to which 4 mls of ScintiverseTM-BDR cocktail scintillation fluid (Fisher Scientific; Hampton, NH, USA) was added. Filters were incubated at room temperature for 24 h in scintillation fluid, vortexed, and radioactivity (measured as DPMs) was quantified via a liquid scintillation spectrophotometer (Tri Carb 2100 TR Liquid Scintillation Analyzer, Packard Instruments, Meriden, CT, USA).
(§2) These experiments were conducted to screen well-characterized cannabinoid ligands with high affinity for canonical CB1 and/or CB2Rs for binding to CBRs expressed in prostate cancer cells lines, as detailed in [33]. […] All binding reactions were conducted in triplicate, in a final volume of 1 mL, and, following mixing, were incubated for 20 min in a 37 °C water bath to achieve equilibrium. After incubation, reactions were terminated by rapid vacuum filtration and processed for radioactivity, as detailed in Section 4.5.1.

[2] = system: CBRs expressed in PC-3 membranes; assay: [^3H]WIN-55,212-2 competitive binding screen, PC-3 membranes; set-up: species or system human
Protocol: as §1, §2

DU-145 cells [3] = assay: ATP-dependent cell viability, DU-145 cells; type: cell-based, human; conditions: co-incubation with 10 μM ligand, 24 h
Protocol: Adenosine 5′-triphosphate (ATP) levels were quantified as a measure of DU-145 cell viability in response to cannabinoid treatement using an ATP-luciferase-based bioluminescence assay kit (CellTiter-Glo®, Sigma, MO, USA) and BioTek microplate reader (Winooski, VT, USA). DU-145 cells were seeded at a density of 8 × 10^3 cells/well in a 96-well plate and incubated for 24 h at 37 °C with 5% CO2. The next day, cells were treated with either vehicle or experimental drugs (10 or 50 μM) and incubated for another 24 h at 37 °C with 5% CO2. ATP levels were assessed following incubation by interpolation from an ATP standard curve according to the manufacturer’s protocol, as described previously.

DU-145 cells [4] = assay: Mitochondrial membrane potential (JC-1 staining), DU-145 cells; type: cell-based, human; conditions: 24 h
DU-145 cells [5] = assay: LDH cytotoxicity, DU-145 cells; type: cell-based, human; conditions: 500 nM, 24 h
Protocol: DU-145 cells were seeded at a density of 130 × 10^3 cells/well in 6-well plates and maintained in an incubator at 37 °C with 5% CO2 for 24 h. […] Treated cells were incubated for an additional 24 h, followed by quantification of LDH release. LDH released from damaged or dying cells oxidizes lactate to produce NADH which then reacts with a water-soluble tetrazolium salt (WST) reagent to produce a yellow-colored product. The intensity of the yellow-colored product was detected with an OD reading at 450 nm (quantified by a BioTek microplate reader interfaced with SoftMax Pro 5.4.5 software; Winooski, VT, USA) and was directly proportional to the amount of LDH released. Percent cytotoxicity was calculated according to the manufacturer’s protocol as the following: % Cytotoxicity=OD450 Supernatant/Supernatant+Lysate

[6] = system: CBRs expressed in PC-3 membranes; assay: [^35S]GTPγS binding, PC-3 membranes; type: biochemical, human; conditions: 10 μM
Protocol: [^35S]GTPγS binding experiments were conducted to examine G protein modulation by cannabinoids in prostate cancer cell lines DU-145 and PC-3, as detailed previously. Briefly, CHO-hCB2 (50 μg), PC3 (100 μg), or DU-145 (100 μg) membrane homogenates were incubated with a single receptor-saturating concentration (10^−5 M) of cannabinoid ligands to be examined and 0.1 nM [^35S]GTPγS in incubation buffer (20 mM HEPES buffer, pH 7.4, 10 μM GDP, 100 mM NaCl, 0.1% bovine serum albumin, and 10 mM MgCl2). Non-specific binding was defined as radioactivity remaining in the presence of 10 μM of non-radioactive GTPγS and subtracted from total binding to determine specific [^35S]GTPγS binding. All binding reactions were conducted in triplicate, in a final volume of 1 mL, and, following mixing, were incubated for 30 min at 30 °C. After incubation, reactions were terminated by rapid vacuum filtration through Whatman GF/B glass fiber filters (Brandel; Gaithersburg, MD, USA), followed by three washes of 4 mls of ice-cold filtration buffer (50 mM Tris, pH 7.4, and 0.05% bovine serum albumin). Samples were punched out from filter papers into scintillation vials, to which 4 mls of ScintiverseTM-BDR cocktail scintillation fluid (Fisher Scientific; Hampton, NH, USA) was added. Filters were incubated at room temperature for 24 h in scintillation fluid, vortexed, and radioactivity (measured as DPMs) was determined via a liquid scintillation spectrophotometer (Tri Carb 2100 TR Liquid Scintillation Analyzer, Packard Instruments, Meriden, CT, USA).

[7] = system: CBRs expressed in DU-145 membranes; type: biochemical, human; conditions: 10 μM
Protocol: Non-specific binding was defined as radioactivity remaining in the presence of 10 μM of non-radioactive GTPγS and subtracted from total binding to determine specific [^35S]GTPγS binding. All binding reactions were conducted in triplicate, in a final volume of 1 mL, and, following mixing, were incubated for 30 min at 30 °C. After incubation, reactions were terminated by rapid vacuum filtration through Whatman GF/B glass fiber filters (Brandel; Gaithersburg, MD, USA), followed by three washes of 4 mls of ice-cold filtration buffer (50 mM Tris, pH 7.4, and 0.05% bovine serum albumin). Samples were punched out from filter papers into scintillation vials, to which 4 mls of ScintiverseTM-BDR cocktail scintillation fluid (Fisher Scientific; Hampton, NH, USA) was added. Filters were incubated at room temperature for 24 h in scintillation fluid, vortexed, and radioactivity (measured as DPMs) was determined via a liquid scintillation spectrophotometer (Tri Carb 2100 TR Liquid Scintillation Analyzer, Packard Instruments, Meriden, CT, USA).

[8] = 1 μM ligand, 1 nM radioligand, PC-3 membranes

SMILES: CCCCCCCC/C=C\CCCCCCCC(=O)N[C@H](C(=O)O)C(C)C [N-oleoyl-valine]
- displacement of [^3H]WIN-55,212-2 [1]: 15 ± 2.7%

SMILES: CC(C)[C@H](NC(=O)c1nn(CCCCCF)c2ccccc12)C(N)=O [5F-AB-PINACA]
- displacement of [^3H]WIN-55,212-2 [2, 8]: failed to displace
- displacement of [^3H]WIN-55,212-2 [1]: failed to displace

SMILES: C=C(C)[C@@H]1CCC(C)=C[C@H]1c1c(O)cc(CCCCC)cc1O [CBD, cannabidiol]
- displacement of [^3H]WIN-55,212-2 [2, 8]: failed to displace
- displacement of [^3H]WIN-55,212-2 [1]: failed to displace

SMILES: COc1cc(CNC(=O)CCCC/C=C/C(C)C)ccc1O [capsaicin]
- displacement of [^3H]WIN-55,212-2 [1]: Neither the high affinity TRPV1 ligands capsaicin [38], PDDHV [39], and CAY-100448 [40] nor the TRPA1 ligand HC-030031 [41] produced significant displacement

SMILES: Cc1c(C(=O)NN2CCCCC2)nn(-c2ccc(Cl)cc2Cl)c1-c1ccc(I)cc1 [AM-251]
- attenuation of GW-405833 (50 μM)-induced reduction in ATP concentrations (DU-145 cells [3]): significantly attenuated reductions in ATP concentrations produced by GW-405833
- MMP on co-incubation with GW-405833 (10 μM) (DU-145 cells [4]; 10 μM ligand co-incubated): MMP was not significantly reduced from vehicle-treated levels

SMILES: O=C(NC12CC3CC(CC(C3)C1)C2)c1nn(CCCCCF)c2ccccc12 [5F-AKB48]
- displacement of [^3H]WIN-55,212-2 [2]: failed to displace
- displacement of [^3H]WIN-55,212-2 [1]: failed to displace

SMILES: CCCCCCCCCC(=O)O[C@@H]1[C@@H](C)[C@@]2(O)[C@@H](C=C(COC(=O)Cc3ccc(O)c(OC)c3)C[C@]3(O)C(=O)C(C)=C[C@@H]23)[C@@H]2C(C)(C)[C@]12OC(=O)CCCCCCCCC [PDDHV]
- displacement of [^3H]WIN-55,212-2 [1]: Neither the high affinity TRPV1 ligands capsaicin [38], PDDHV [39], and CAY-100448 [40] nor the TRPA1 ligand HC-030031 [41] produced significant displacement

SMILES: OCCOc1ccc(/C(=C(/CCCl)c2ccccc2)c2ccccc2)cc1 [OSP, ospemifene]
- displacement of [^3H]WIN-55,212-2 [2]: failed to displace
- displacement of [^3H]WIN-55,212-2 [1]: failed to displace

SMILES: Cc1c(C(=O)Nc2cccc(C(F)(F)F)c2)cc(-c2ccccc2)n1CCCN1CCOCC1 [HC-067047]
- displacement of [^3H]WIN-55,212-2 [1]: 22 ± 3.8%

SMILES: CC(=O)O[C@@]12CO[C@@H]1C[C@H](O)[C@@]1(C)C(=O)[C@H](O)C3=C(C)[C@@H](OC(=O)[C@H](O)[C@@H](NC(=O)OC(C)(C)C)c4ccccc4)C[C@@](O)([C@@H](OC(=O)c4ccccc4)[C@H]21)C3(C)C [docetaxel]
- increase in LDH release (DU-145 cells [5]): 16.8 ± 3.4%
- mitochondrial membrane potential (MMP) depolarization (DU-145 cells [4]; 500 nM, JC-1): induced significant mitochondrial membrane depolarization

SMILES: Cc1ccc(C(=O)c2cn(CCCCCF)c3ccccc23)c2ccccc12 [MAM-2201]
- displacement of [^3H]WIN-55,212-2 [2, 8]: failed to displace
- displacement of [^3H]WIN-55,212-2 [1]: failed to displace

SMILES: CCCCC/C=C\C/C=C\C/C=C\C/C=C\CCCC(=O)NCCCl [ACEA]
- displacement of [^3H]WIN-55,212-2 [2]: failed to displace
- displacement of [^3H]WIN-55,212-2 [1]: failed to displace

SMILES: O=C(Oc1cccc2ccccc12)c1cn(Cc2ccc(F)cc2)c2ccccc12 [FDU-PB-22]
- displacement of [^3H]WIN-55,212-2 [2, 8]: failed to displace
- displacement of [^3H]WIN-55,212-2 [1]: failed to displace

SMILES: CC(C)c1ccc(NC(=O)Cn2cnc3c2c(=O)n(C)c(=O)n3C)cc1 [HC-030031]
- displacement of [^3H]WIN-55,212-2 [1]: Neither the high affinity TRPV1 ligands capsaicin [38], PDDHV [39], and CAY-100448 [40] nor the TRPA1 ligand HC-030031 [41] produced significant displacement

SMILES: CCCCCc1cc(O)c2c(c1)OC(C)(C)[C@@H]1CCC(C)=C[C@@H]21 [THC, Δ^9-tetrahydrocannabinol]
- displacement of [^3H]WIN-55,212-2 [2, 8]: failed to displace
- displacement of [^3H]WIN-55,212-2 [1]: failed to displace

SMILES: COc1ccc2c(c1)CCC(c1ccccc1)=C2c1ccc(OCCN2CCCC2)cc1 [nafoxidine]
- displacement of [^3H]WIN-55,212-2 [2, 8]: produced significant (but less) displacement
- displacement of [^3H]WIN-55,212-2 [1]: produced significant (but less) displacement
- modulation of [^35S]GTPγS binding [6]: had no effect on G protein activity
- modulation of [^35S]GTPγS binding [7]: had no effect on G protein activity

SMILES: Cc1c(C(=O)c2cccc3ccccc23)c2cccc3c2n1[C@@H](CN1CCOCC1)CO3 [WIN-55,212-3]
- displacement of [^3H]WIN-55,212-2 [2]: 20.7 ± 10.3%
- displacement of [^3H]WIN-55,212-2 [1]: 13.9 ± 2.7%

From paper PMC8954350, “Non-Canonical Cannabinoid Receptors with Distinct Binding and Signaling Properties in Prostate and Other Cancer Cell Types Mediate Cell Death” (International Journal of Molecular Sciences, 2022)
